# Results reported in patent US11767320B2, “Bicyclic dione compounds as inhibitors of KRAS” (INCYTE CORPORATION, priority 2020, dated 2023).
# Biological target: KRAS G12C (Homo sapiens, UniProt P01116, G12C)
# Experiment: GDP-GTP exchange assay (fluorescence based guanine nucleotide exchange, bodipy-GDP for GppNHp, SOS1)
# Assay type: biochemical
# Settings: bodipy-loaded KRAS G12C, 2 hours pre-incubation with inhibitor, read-out: G12C_exchange (KRAS_G12C exchange assay IC50)
# Method: The inhibitor potency of the exemplified compounds was determined in a fluorescence based guanine nucleotide exchange assay, which measures the exchange of bodipy-GDP (fluorescently labeled GDP) for GppNHp (Non-hydrolyzable GTP analog) to generate the active state of KRAS in the presence of SOS1 (guanine nucleotide exchange factor). Inhibitors were serially diluted in DMSO and a volume of 0.1 μL was transferred to the wells of a black low volume 384-well plate. 5 μL/well volume of bodipy-loaded KRAS G12C diluted to 5 nM in assay buffer (25 mM Hepes pH 7.5, 50 mM NaCl, 10 mM MgCl2 and 0.01% Brij-35) was added to the plate and pre-incubated with inhibitor for 2 hours at ambient temperature. Appropriate controls (enzyme with no inhibitor or with a G12C inhibitor (AMG-510)) were included on the plate. The exchange was initiated by the addition of a 5 μL/well volume containing 1 mM GppNHp and 300 nM SOS1 in assay buffer. The 10 μL/well reaction concentration of the bodipy-loaded KRAS G12C, GppNHp, and SOS1 were 5-25 nM, 500 uM, and 150 nM, respectively. The reaction plates were incubated at ambient temperature for 2 hours, a time estimated for complete GDP-GTP exchange in the absence of inhibitor. For the KRAS G12D and G12V mutants, similar guanine nucleotide exchange assays were used with 2.5 nM as final concentration for the bodipy loaded KRAS proteins and with 4 hours and 3 hours incubation after adding GppNHp-SOS1 mixture for G12D and G12V, respectively. A cyclic peptide described to selectively bind G12D mutant (Sakamoto et al., BBRC 484.3 (2017), 605-611) or internal compounds with confirmed binding were used as positive controls in the assay plates. Fluorescence intensities were measured on a PheraStar plate reader instrument (BMG Labtech) with excitation at 485 nm and emission at 520 nm.
# Either GraphPad prism or XLfit was used to analyze the data. The IC50 values were derived by fitting the data to a four parameter logistic equation producing a sigmoidal dose-response curve with a variable Hill coefficient. Prism equation: Y=Bottom+(Top−Bottom)/(1+10^((Log IC50−X)*Hill slope)); XLfit equation: Y=(A+((B−A)/(1+((X/C)^D)))) where X is the logarithm of inhibitor concentration and Y is the response.
# Chain of KRAS G12C (P01116 1-188 isoform P01116-2 G12C): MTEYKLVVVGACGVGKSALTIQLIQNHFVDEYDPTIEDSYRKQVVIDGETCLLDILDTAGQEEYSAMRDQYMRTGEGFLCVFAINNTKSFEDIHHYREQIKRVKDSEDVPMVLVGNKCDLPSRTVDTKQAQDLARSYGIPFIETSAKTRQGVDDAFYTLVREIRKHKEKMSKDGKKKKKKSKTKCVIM
row,SMILES,IC50 [µM]
1,"C=CC(=O)N1CC(F)(Cn2c(=O)c(=O)n(-c3c(C)ccnc3C(C)C)c3nc(-c4c(F)ccc(O)c4O)c(Cl)cc32)C1 [Example 26, 1-((1-acryloyl-3-fluoroazetidin-3-yl)methyl)-7-chloro-6-(6-fluoro-2,3-dihydroxyphenyl)-4-(2-isopropyl-4-methylpyridin-3-yl)-1,4-dihydropyrido[2,3-b]pyrazine-2,3-dione]",0.1 to 1
2,"C=CC(=O)N1CC(F)(Cn2c(=O)c(=O)n(-c3c(C)ccnc3C(C)C)c3nc(-c4cccc5cn[nH]c45)c(Cl)cc32)C1 [Example 29, 1-((1-acryloyl-3-fluoroazetidin-3-yl)methyl)-7-chloro-6-(1H-indazol-7-yl)-4-(2-isopropyl-4-methylpyridin-3-yl)-1,4-dihydropyrido[2,3-b]pyrazine-2,3-dione]",0.1 to 1
3,"C=CC(=O)N1CC(F)(Cn2c(=O)c(=O)n(-c3c(C)ccnc3C(C)C)c3nc(-c4cccc5nn[nH]c45)c(Cl)cc32)C1 [Example 30, 1-((1-acryloyl-3-fluoroazetidin-3-yl)methyl)-6-(1H-benzo[d][1,2,3]triazol-7-yl)-7-chloro-4-(2-isopropyl-4-methylpyridin-3-yl)-1,4-dihydropyrido[2,3-b]pyrazine-2,3-dione]",0.1 to 1
4,"C=CC(=O)N1CC(F)(Cn2c(=O)c(=O)n(-c3c(C)ccnc3C(C)C)c3nc(-c4cccnc4N)c(Cl)cc32)C1 [Example 31, 1-((1-acryloyl-3-fluoroazetidin-3-yl)methyl)-6-(2-aminopyridin-3-yl)-7-chloro-4-(2-isopropyl-4-methylpyridin-3-yl)-1,4-dihydropyrido[2,3-b]pyrazine-2,3-dione]",0.1 to 1
5,"C=CC(=O)N1CC(F)(Cn2c(=O)c(=O)n(-c3c(C)ccnc3C(C)C)c3nc(-c4cccc5ccc(=O)[nH]c45)c(Cl)cc32)C1 [Example 32, 1-((1-acryloyl-3-fluoroazetidin-3-yl)methyl)-7-chloro-4-(2-isopropyl-4-methylpyridin-3-yl)-6-(2-oxo-1,2-dihydroquinolin-8-yl)-1,4-dihydropyrido[2,3-b]pyrazine-2,3-dione]",0.1 to 1
6,"C=CC(=O)N1CC(O)(Cn2c(=O)c(=O)n(-c3c(C)ccnc3C(C)C)c3nc(-c4c(F)ccc(F)c4O)c(Cl)cc32)C1 [Example 44, 1-((1-acryloyl-3-hydroxyazetidin-3-yl)methyl)-7-chloro-6-(3,6-difluoro-2-hydroxyphenyl)-4-(2-isopropyl-4-methylpyridin-3-yl)-1,4-dihydropyrido[2,3-b]pyrazine-2,3-dione]",0.1 to 1
7,"C=CC(=O)N1CC(O)(Cn2c(=O)c(=O)n(-c3c(C)ccnc3C(C)C)c3nc(-c4c(O)cc(C)cc4F)c(Cl)cc32)C1 [Example 46, 1-((1-acryloyl-3-hydroxyazetidin-3-yl)methyl)-7-chloro-6-(2-fluoro-6-hydroxy-4-methylphenyl)-4-(2-isopropyl-4-methylpyridin-3-yl)-1,4-dihydropyrido[2,3-b]pyrazine-2,3-dione]",0.1 to 1
8,"[2H]C([2H])(n1c(=O)c(=O)n(-c2c(C)ccnc2C(C)C)c2nc(-c3c(O)cc(C)cc3F)c(Cl)cc21)C1(F)CN(C(=O)C=C)C1 [Example 48, 1-((1-acryloyl-3-fluoroazetidin-3-yl)methyl-d2)-7-chloro-6-(2-fluoro-6-hydroxy-4-methylphenyl)-4-(2-isopropyl-4-methylpyridin-3-yl)-1,4-dihydropyrido[2,3-b]pyrazine-2,3-dione]",≤ 0.1
9,"[2H]C([2H])(n1c(=O)c(=O)n(-c2c(C)ccnc2C(C)C)c2nc(-c3c(O)cccc3Cl)c(Cl)cc21)C1(F)CN(C(=O)C=C)C1 [Example 49, 1-((1-acryloyl-3-fluoroazetidin-3-yl)methyl-d2)-7-chloro-6-(2-chloro-6-hydroxyphenyl)-4-(2-isopropyl-4-methylpyridin-3-yl)-1,4-dihydropyrido[2,3-b]pyrazine-2,3-dione]",≤ 0.1
10,"[2H]C([2H])(n1c(=O)c(=O)n(-c2c(C)ccnc2C(C)C)c2nc(-c3c(O)cccc3Cl)c(Cl)cc21)C1(F)CN(C(=O)C(=C)F)C1 [Example 50, 7-chloro-6-(2-chloro-6-hydroxyphenyl)-1-((3-fluoro-1-(2-fluoroacryloyl)azetidin-3-yl)methyl-d2)-4-(2-isopropyl-4-methylpyridin-3-yl)-1,4-dihydropyrido[2,3-b]pyrazine-2,3-dione]",≤ 0.1
11,"[2H]C([2H])(n1c(=O)c(=O)n(-c2c(C)ccnc2C(C)C)c2nc(-c3cncc(C)c3C)c(Cl)cc21)C1(F)CN(C(=O)C=C)C1 [Example 52, 1-((1-acryloyl-3-fluoroazetidin-3-yl)methyl-d2)-7-chloro-6-(4,5-dimethylpyridin-3-yl)-4-(2-isopropyl-4-methylpyridin-3-yl)-1,4-dihydropyrido[2,3-b]pyrazine-2,3-dione]",1 to 5

# Results, then the compound that gave them:
row,IC50 [µM],SMILES
1,5 to 10,"C=CC(=O)N1CCC(n2c(=O)c(=O)n(-c3c(CC)cccc3CC)c3nc(-c4ccccc4F)c(Cl)cc32)CC1 [Example 1, 1-(1-acryloylpiperidin-4-yl)-7-chloro-4-(2,6-diethylphenyl)-6-(2-fluorophenyl)-1,4-dihydropyrido[2,3-b]pyrazine-2,3-dione]"
2,1 to 5,"C=CC(=O)N1CCC(n2c(=O)c(=O)n(-c3c(CC)cccc3CC)c3nc(-c4c(O)cccc4F)c(Cl)cc32)CC1 [Example 2, 1-(1-acryloylpiperidin-4-yl)-7-chloro-4-(2,6-diethylphenyl)-6-(2-fluoro-6-hydroxyphenyl)-1,4-dihydropyrido[2,3-b]pyrazine-2,3-dione]"
3,0.1 to 1,"C=CC(=O)N1CC(Cn2c(=O)c(=O)n(-c3c(C(C)C)cccc3C(C)C)c3nc(-c4ccccc4F)c(Cl)cc32)C1 [Example 3, 1-((1-acryloylazetidin-3-yl)methyl)-7-chloro-4-(2,6-diisopropylphenyl)-6-(2-fluorophenyl)-1,4-dihydropyrido[2,3-b]pyrazine-2,3-dione]"
4,0.1 to 1,"C=CC(=O)N1CC(Cn2c(=O)c(=O)n(-c3c(CC)cccc3CC)c3nc(-c4ccccc4F)c(Cl)cc32)C1 [Example 4, 1-((1-acryloylazetidin-3-yl)methyl)-7-chloro-4-(2,6-diethylphenyl)-6-(2-fluorophenyl)-1,4-dihydropyrido[2,3-b]pyrazine-2,3-dione]"
5,1 to 5,"C=CC(=O)N1CC(Cn2c(=O)c(=O)n(-c3c(C(C)C)cccc3C(C)C)c3nc(-c4cccc5ccccc45)c(Cl)cc32)C1 [Example 6, 1-((1-acryloylazetidin-3-yl)methyl)-7-chloro-4-(2,6-diisopropylphenyl)-6-(1-naphthyl)-1,4-dihydropyrido[2,3-b]pyrazine-2,3-dione]"
6,0.1 to 1,"C=CC(=O)N1CC(Cn2c(=O)c(=O)n(-c3c(C)ccnc3C(C)C)c3nc(-c4ccccc4F)c(Cl)cc32)(OC)C1 [Example 41, 1-((1-acryloyl-3-methoxyazetidin-3-yl)methyl)-6-(2-fluorophenyl)-7-chloro-4-(2-isopropyl-4-methylpyridin-3-yl)-1,4-dihydropyrido[2,3-b]pyrazine-2,3-dione]"
7,0.1 to 1,"C=CC(=O)N1CC(O)(Cn2c(=O)c(=O)n(-c3c(C)ccnc3C(C)C)c3nc(-c4ccccc4F)c(Cl)cc32)C1 [Example 43, 1-((1-acryloyl-3-hydroxyazetidin-3-yl)methyl)-7-chloro-6-(2-fluorophenyl)-4-(2-isopropyl-4-methylpyridin-3-yl)-1,4-dihydropyrido[2,3-b]pyrazine-2,3-dione]"
